The text below walks through data of patent US10308652B2, “Tricyclic heterocyclic compounds useful as inhibitors of TNF” (BRISTOL-MYERS SQUIBB COMPANY, priority 2015, dated 2019).

This assay deals with TNFα (Homo sapiens (Human), UniProt P01375). Description: TNF induced HEK-Blue assay. The format is cell-based. The note with it: TNFα 0.5 ng/ml; HEK-Blue-CD40L cells, NF-κB-driven secreted alkaline phosphatase reporter; 18 h. The procedure:
TNF or CD40L-induced HEK-Blue Assay Test compounds serially diluted in DMSO were plated in an assay plate (Labcyte, Cat. #LP-0200) at final concentrations ranging from 0.004 μM to 25μM. TNFα (final concentration 0.5 ng/ml) or CD4OL (final concentration 30 ng/ml) in assay buffer [DMEM, 4.5 g/l glucose (Gibco, Cat. 21063-029), 10% FBS (Sigma, F4135), 1% Penicillin-Streptomycin (Gibco, Cat. 15140-122), 1% Anti-Anti (Gibco, Cat. 15240-112) and 2 mM L-glutamine (Gibco, Cat. 25030-081)] was then added to the assay plate. After a 30 minute pre-incubation at 37° C. and 5% CO2, HEK-Blue-CD40L cells (InvivoGen, Cat. Code hkb-cd40) containing a NF-κB-driven secreted alkaline phosphatase reporter gene were seeded into the assay plate at a density of 20,000 cells per well. This plate was then incubated for 18 h at 37° C. and 5% CO2. Secreted alkaline phosphatase expression was measured using QUANTI-Blue (InvivoGen, Cat. Code rep-qb1) according to manufacturer's specifications and the assay plate was read on a PerkinElmer Envision at 620 nm. Inhibition data for the test compound over a range of concentrations was plotted as percentage inhibition of the test compound (100%=maximum inhibition). IC50 values were determined after correcting for background [(sample read−mean of low control)/(mean of high control−mean of low control)] where by the low control is DMSO without stimulation and high control is DMSO with stimulation. The IC50 is defined as the concentration of test compound which produces 50% inhibition and was quantified using the 4 parameter logistic equation to fit the data.

One may read the IC50 as the concentration that inhibits the measured activity by half. A high value points to weaker potency.

TNFα, sequence (P01375 77-233): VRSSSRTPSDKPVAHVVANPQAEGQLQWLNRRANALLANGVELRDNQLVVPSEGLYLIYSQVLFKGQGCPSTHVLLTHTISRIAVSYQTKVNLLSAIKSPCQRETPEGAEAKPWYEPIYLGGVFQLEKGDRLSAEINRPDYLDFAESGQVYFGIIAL

As to `COc1ccc(-c2ccc3nc4c(n3n2)C(c2ccccc2OC(F)F)NCC4O)cn1` [Example 16, cis-(6R,9S)-9-(2-(difluoromethoxy)phenyl)-2-(6-methoxypyridin-3-yl)-6,7,8,9-tetrahydropyrido[4′,3′:4,5]imidazo[1,2-b]pyridazin-6-ol], the half-inhibitory concentration (IC50) lay in the range of 1 to 10 µM.
For the compound `CC(C)(O)c1ncc(-c2ccc3nc4c(n3n2)C(c2ccccc2OC(F)F)NCC4O)cn1` (centres unmarked) [Example 17, 9-(2-(difluoromethoxy)phenyl)-2-(2-(2-hydroxypropan-2-yl)pyrimidin-5-yl)-6,7,8,9-tetrahydropyrido[4′,3′:4,5]imidazo[1,2-b]pyridazin-6-ol], the IC50 fell in the range of 1 to 10 µM.
The compound `COC1CN(C(=O)c2ccc(-c3ccc4nc5c(n4n3)C(c3ccccc3OC(F)F)NCC5O)cc2)C1` (centres unmarked) [Example 18, (4-(9-(2-(difluoromethoxy)phenyl)-6-hydroxy-6,7,8,9-tetrahydropyrido[4′,3′:4,5]imidazo[1,2-b]pyridazin-2-yl)phenyl)(3-methoxyazetidin-1-yl)methanone] registered a concentration for half-maximal inhibition (IC50) of 10 to 25 µM.
`O=C(c1ccc(-c2ccc3nc4c(n3n2)C(c2ccccc2OC(F)F)NCC4O)cc1)N1CCOCC1` (centres unmarked) [Example 19, (4-(9-(2-(difluoromethoxy)phenyl)-6-hydroxy-6,7,8,9-tetrahydropyrido[4′,3′:4,5]imidazo[1,2-b]pyridazin-2-yl)phenyl)(morpholino)methanone] registered a half-inhibitory concentration (IC50) of 1 to 10 µM.
Take `O=C(NC1CC1)c1ccc(-c2ccc3nc4c(n3n2)C(c2ccccc2OC(F)F)NCC4O)cc1` (centres unmarked) [Example 20, N-cyclopropyl-4-(9-(2-(difluoromethoxy)phenyl)-6-hydroxy-6,7,8,9-tetrahydropyrido[4′,3′:4,5]imidazo[1,2-b]pyridazin-2-yl)benzamide]: the IC50 lay in the range of 10 to 25 µM.
In the case of `O=C(NC1CC1)c1ccc(-c2ccc3nc4c(n3n2)C(c2ccccc2OC(F)F)NCC4O)cn1` (centres unmarked) [Example 21, N-cyclopropyl-5-(9-(2-(difluoromethoxy)phenyl)-6-hydroxy-6,7,8,9-tetrahydropyrido[4′,3′:4,5]imidazo[1,2-b]pyridazin-2-yl)picolinamide] it was 1 to 10 µM; in that of `O=C(O)CN1CCN(c2ncc(-c3ccc4nc5c(n4n3)C(c3ccccc3OC(F)F)NCC5O)cn2)CC1` (centres unmarked) [Example 22, 2-(4-(5-(9-(2-(difluoromethoxy)phenyl)-6-hydroxy-6,7,8,9-tetrahydropyrido [4′,3′:4,5]imidazo[1,2-b]pyridazin-2-yl)pyrimidin-2-yl)piperazin-1-yl)acetic acid], 1 to 10 µM; in that of `CC(C)(O)c1ccc(-c2ccc3nc4c(n3n2)C(c2ccccc2OC(F)(F)F)NCC4O)cc1` (centres unmarked) [Example 26, 2-(4-(2-hydroxypropan-2-yl)phenyl)-9-(2-(trifluoromethoxy)phenyl)-6,7,8,9-tetrahydropyrido [4′,3′:4,5]imidazo[1,2-b]pyridazin-6-ol], under 1 µM.
The result for `CC(C)(O)c1ccc(-c2ccc3nc4c(n3n2)C(c2ccccc2OC(F)F)OCC4(C)O)cc1` (centres unmarked) [Example 59, 9-(2-(Difluoromethoxy)phenyl)-2-(4-(2-hydroxypropan-2-yl)phenyl)-6-methyl-6,9-dihydro-7H-pyrano[4′,3′:4,5]imidazo[1,2-b]pyridazin-6-ol] reads 1 to 10 µM; that for `CC(C)(O)c1ccc(-c2ccc3nc4c(n3n2)C(c2ccccc2OC(F)F)OCC4(O)c2ccncc2)cc1` (centres unmarked) [Example 60, 9-(2-(Difluoromethoxy)phenyl)-2-(4-(2-hydroxypropan-2-yl)phenyl)-6-(pyridin-4-yl)-6,9-dihydro-7H-pyrano[4′,3′:4,5]imidazo[1,2-b]pyridazin-6-ol], 1 to 10 µM; that for `CC(C)(O)c1ccc(-c2ccc3nc4c(n3n2)C(c2ccccc2OC(F)F)OCC4)cc1` (centres unmarked) [Example 62, 2-(4-(9-(2-(Difluoromethoxy)phenyl)-7,9-dihydro-6H-pyrano[4′,3′:4,5]imidazo[1,2-b]pyridazin-2-yl)phenyl)propan-2-ol], under 1 µM.
